Bridge positions count the residues as written; N and C are the ends. Square brackets hold non-standard residues; d marks the D form. Peptide text beside a SMILES is read from it. Hyp = O=C(O)[C@@H]1C[C@@H](O)CN1; Cit = NC(=O)NCCC[C@H](N)C(=O)O
Assays:
[1] = Physical stability of peptide analogues (Thioflavin T fibrillation); format: physicochemical; settings: maximum ThT signal normalized between hAMY maximum and buffer background; 40° C., shaking, four days; pH 7 per table title
Procedure, shortened: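 Peptides in 50 mM sodium acetate pH 4 or 50 mM sodium phosphate pH 7 were preincubated 1 h, mixed with 4 μM ThT, held at 40° C with 700 rpm shaking before each read. Fluorescence (ex 450/em 480 nm) every 10 min for four days; LOESS-smoothed maximum signal normalized in percent between hAMY and buffer.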

[2] = target: T1, hAMY3 receptor (Homo sapiens, UniProt O60896+P30988); experiment: cAMP assay for in vitro receptor activation, hAMY3-R; format: cell-based; settings: cAMP assay, hAMY3 receptor; read-out: hAMY3R EC50
T1 sequence (P30988 25-474): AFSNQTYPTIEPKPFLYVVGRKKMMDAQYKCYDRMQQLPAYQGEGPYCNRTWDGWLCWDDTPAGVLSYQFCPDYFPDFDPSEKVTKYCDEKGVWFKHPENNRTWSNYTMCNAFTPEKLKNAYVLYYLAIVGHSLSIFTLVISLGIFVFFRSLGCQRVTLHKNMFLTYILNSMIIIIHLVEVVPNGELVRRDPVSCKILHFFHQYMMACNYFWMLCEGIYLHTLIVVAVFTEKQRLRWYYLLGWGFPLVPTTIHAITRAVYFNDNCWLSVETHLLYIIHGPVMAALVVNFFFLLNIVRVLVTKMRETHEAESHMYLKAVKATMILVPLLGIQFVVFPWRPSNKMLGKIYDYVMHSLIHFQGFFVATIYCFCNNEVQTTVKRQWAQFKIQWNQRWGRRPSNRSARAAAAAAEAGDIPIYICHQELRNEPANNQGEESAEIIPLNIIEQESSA
T1 sequence (O60896 24-148 partner): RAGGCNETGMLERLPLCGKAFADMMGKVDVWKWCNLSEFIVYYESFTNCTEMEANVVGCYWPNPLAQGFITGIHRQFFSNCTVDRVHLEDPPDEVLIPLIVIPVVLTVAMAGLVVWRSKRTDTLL
Procedure, shortened: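 Graded compound concentrations were applied for 30 min at room temperature to stably hAMY3-expressing cells in DPBS, 0.05% casein, 0.5 mM IBMX; cAMP detected by TR-FRET.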

| Max ThT signal (%) [1] [%] | EC50 [2] [nM] | Structure (SMILES) |
| --- | --- | --- |
| 2.000 | 0.056 | CC[C@H](C)[C@H](NC(=O)[C@H](CCC(N)=O)NC(=O)[C@H](Cc1c[nH]cn1)NC(=O)[C@H](C)NC(=O)[C@H](CC(C)C)NC(=O)[C@H](CCCNC(=N)N)NC(=O)[C@H](CCC(N)=O)NC(=O)[C@@H](NC(=O)[C@@H](NC(=O)[C@@H]1CSSC[C@H](NC(=O)CN)C(=O)N[C@@H](CCCNC(=N)N)C(=O)N[C@@H]([C@@H](C)O)C(=O)NCC(=O)N[C@@H]([C@@H](C)O)C(=O)N1)[C@@H](C)O)C(C)C)C(=O)N[C@@H](Cc1ccc(O)cc1)C(=O)N[C@@H](CCC(N)=O)C(=O)N[C@@H](Cc1ccccc1)C(=O)N[C@H](C(=O)N[C@@H](CC(=O)O)C(=O)N[C@@H](CCCCN)C(=O)N[C@@H](CC(=O)O)C(=O)N[C@@H](CCCCN)C(=O)N[C@@H](CC(=O)O)C(=O)N[C@@H](CC(N)=O)C(=O)N[C@H](C(=O)N[C@@H](C)C(=O)N1CCC[C@H]1C(=O)N[C@@H](CCCNC(=N)N)C(=O)N[C@@H](CO)C(=O)N[C@@H](CC(N)=O)C(=O)N[C@H](C(=O)N[C@@H](CO)C(=O)N1CCC[C@H]1C(=O)N[C@@H](CC(N)=O)C(=O)NCC(=O)N1C[C@H](O)C[C@H]1C(N)=O)C(C)C)C(C)C)[C@@H](C)O [compound 166] (H-GCRTGTCTVQRLAHQIYQFTDKDKDNVAPRSNVSPNG[Hyp]-NH2; disulfide 2-7; N-terminus assumed) |
| 10.850 | 0.01 | CC[C@H](C)[C@H](NC(=O)[C@H](CCC(N)=O)NC(=O)[C@H](Cc1c[nH]cn1)NC(=O)[C@H](C)NC(=O)[C@H](CC(C)C)NC(=O)[C@H](CCCNC(N)=O)NC(=O)[C@H](CCC(N)=O)NC(=O)[C@@H](NC(=O)[C@@H](NC(=O)[C@@H]1CSSC[C@H](NC(=O)CN)C(=O)N[C@@H](CCCNC(=N)N)C(=O)N[C@@H](Cc2ccccc2)C(=O)NCC(=O)N[C@@H]([C@@H](C)O)C(=O)N1)[C@@H](C)O)C(C)C)C(=O)N[C@@H](Cc1ccc(O)cc1)C(=O)N[C@@H](CCC(N)=O)C(=O)N[C@@H](Cc1ccccc1)C(=O)N[C@H](C(=O)N[C@@H](CC(=O)O)C(=O)N[C@@H](CCCCN)C(=O)N[C@@H](CC(=O)O)C(=O)N[C@@H](CCCCN)C(=O)N[C@@H](CC(=O)O)C(=O)N[C@@H](CC(N)=O)C(=O)N[C@H](C(=O)N[C@@H](C)C(=O)N1CCC[C@H]1C(=O)N[C@@H](CCCNC(=N)N)C(=O)N[C@H](C(=O)N[C@@H](CC(N)=O)C(=O)N[C@H](C(=O)N[C@@H](CO)C(=O)N1CCC[C@H]1C(=O)N[C@@H](CC(N)=O)C(=O)NCC(=O)N[C@@H](Cc1ccc(O)cc1)C(N)=O)C(C)C)[C@@H](C)O)C(C)C)[C@@H](C)O [compound 271] (H-GCRFGTCTVQ[Cit]LAHQIYQFTDKDKDNVAPRTNVSPNGY-NH2; disulfide 2-7; N-terminus assumed) |
| 21.150 | 0.005 | CC[C@H](C)[C@H](NC(=O)[C@H](CCC(N)=O)NC(=O)[C@H](Cc1c[nH]cn1)NC(=O)[C@H](C)NC(=O)[C@H](CC(C)C)NC(=O)[C@H](CCCNC(N)=O)NC(=O)[C@H](CCC(N)=O)NC(=O)[C@@H](NC(=O)[C@@H](NC(=O)[C@@H]1CSSC[C@H](NC(=O)CN)C(=O)N[C@@H](CCCNC(=N)N)C(=O)N[C@@H](Cc2ccccc2)C(=O)NCC(=O)N[C@@H]([C@@H](C)O)C(=O)N1)[C@@H](C)O)C(C)C)C(=O)N[C@@H](Cc1ccc(O)cc1)C(=O)N[C@@H](CCC(N)=O)C(=O)N[C@@H](Cc1ccccc1)C(=O)N[C@H](C(=O)N[C@@H](CC(=O)O)C(=O)N[C@@H](CCCCN)C(=O)N[C@@H](CC(=O)O)C(=O)N[C@@H](CCCCN)C(=O)N[C@@H](CC(=O)O)C(=O)N[C@@H](CC(N)=O)C(=O)N[C@H](C(=O)N[C@@H](C)C(=O)N1CCC[C@H]1C(=O)N[C@@H](CCCNC(=N)N)C(=O)N[C@@H](CO)C(=O)N[C@@H](CC(N)=O)C(=O)N[C@H](C(=O)NCC(=O)N1CCC[C@H]1C(=O)N[C@@H](CCC(N)=O)C(=O)NCC(=O)N1C[C@H](O)C[C@H]1C(N)=O)C(C)C)C(C)C)[C@@H](C)O [compound 289] (H-GCRFGTCTVQ[Cit]LAHQIYQFTDKDKDNVAPRSNVGPQG[Hyp]-NH2; disulfide 2-7; N-terminus assumed) |
| 3.100 | 0.036 | CC[C@H](C)[C@H](NC(=O)[C@H](CCC(N)=O)NC(=O)[C@H](Cc1c[nH]cn1)NC(=O)[C@H](C)NC(=O)[C@H](CC(C)C)NC(=O)[C@H](CCCNC(=N)N)NC(=O)[C@H](CCC(N)=O)NC(=O)[C@@H](NC(=O)[C@@H](NC(=O)[C@@H]1CSSC[C@H](NC(=O)CN)C(=O)N[C@@H](CCCNC(=N)N)C(=O)N[C@@H](Cc2ccccc2)C(=O)NCC(=O)N[C@@H]([C@@H](C)O)C(=O)N1)[C@@H](C)O)C(C)C)C(=O)N[C@@H](Cc1ccc(O)cc1)C(=O)N[C@@H](CCC(N)=O)C(=O)N[C@@H](Cc1ccccc1)C(=O)N[C@H](C(=O)N[C@@H](CC(=O)O)C(=O)N[C@@H](CCCCN)C(=O)N[C@@H](CC(=O)O)C(=O)N[C@@H](CCCCN)C(=O)N[C@@H](CC(=O)O)C(=O)N[C@@H](CC(N)=O)C(=O)N[C@H](C(=O)N[C@@H](C)C(=O)N1CCC[C@H]1C(=O)N[C@@H](CCCNC(=N)N)C(=O)N[C@H](C(=O)N[C@@H](CC(N)=O)C(=O)N[C@H](C(=O)N[C@@H](CO)C(=O)N1CCC[C@H]1C(=O)N[C@@H](CCC(N)=O)C(=O)NCC(=O)N[C@@H](Cc1ccc(O)cc1)C(N)=O)[C@@H](C)CC)[C@@H](C)O)C(C)C)[C@@H](C)O [compound 140] (H-GCRFGTCTVQRLAHQIYQFTDKDKDNVAPRTNISPQGY-NH2; disulfide 2-7; N-terminus assumed) |
| 7.200 | 0.027 | CC[C@H](C)[C@H](NC(=O)[C@H](CCC(N)=O)NC(=O)[C@H](Cc1c[nH]cn1)NC(=O)[C@H](C)NC(=O)[C@H](CC(C)C)NC(=O)[C@H](CCCNC(=N)N)NC(=O)[C@H](CCC(N)=O)NC(=O)[C@@H](NC(=O)[C@@H](NC(=O)[C@@H]1CSSC[C@H](NC(=O)CN)C(=O)N[C@@H](CCCNC(=N)N)C(=O)N[C@@H](Cc2ccccc2)C(=O)NCC(=O)N[C@@H]([C@@H](C)O)C(=O)N1)[C@@H](C)O)C(C)C)C(=O)N[C@@H](Cc1ccc(O)cc1)C(=O)N[C@@H](CCC(N)=O)C(=O)N[C@@H](Cc1ccccc1)C(=O)N[C@H](C(=O)N[C@@H](CC(=O)O)C(=O)N[C@@H](CCCCN)C(=O)N[C@@H](CC(=O)O)C(=O)N[C@@H](CCCCN)C(=O)N[C@@H](CC(=O)O)C(=O)N[C@@H](CC(N)=O)C(=O)N[C@H](C(=O)N[C@@H](C)C(=O)N1CCC[C@H]1C(=O)N[C@@H](CCCNC(=N)N)C(=O)N[C@H](C(=O)N[C@@H](CC(N)=O)C(=O)N[C@H](C(=O)N[C@@H](CO)C(=O)N1CCC[C@H]1C(=O)N[C@@H](CCC(N)=O)C(=O)NCC(=O)N1C[C@H](O)C[C@H]1C(N)=O)C(C)C)[C@@H](C)O)C(C)C)[C@@H](C)O [compound 125] (H-GCRFGTCTVQRLAHQIYQFTDKDKDNVAPRTNVSPQG[Hyp]-NH2; disulfide 2-7; N-terminus assumed) |
| 18.700 | 0.029 | CC[C@H](C)[C@H](NC(=O)[C@H](CCCCN)NC(=O)[C@@H](NC(=O)[C@H](CCCNC(=N)N)NC(=O)[C@@H]1CCCN1C(=O)[C@H](C)NC(=O)[C@@H](NC(=O)[C@H](CC(N)=O)NC(=O)[C@H](CC(=O)O)NC(=O)[C@H](CCCCN)NC(=O)[C@H](CC(=O)O)NC(=O)[C@H](CCCCN)NC(=O)[C@H](CC(=O)O)NC(=O)[C@@H](NC(=O)[C@H](Cc1ccccc1)NC(=O)[C@H](CCC(N)=O)NC(=O)[C@H](Cc1ccc(O)cc1)NC(=O)[C@@H](NC(=O)[C@H](CCC(N)=O)NC(=O)[C@H](Cc1c[nH]cn1)NC(=O)[C@H](C)NC(=O)[C@H](CC(C)C)NC(=O)[C@H](Cc1c[nH]c2ccccc12)NC(=O)[C@H](CCC(N)=O)NC(=O)[C@@H](NC(=O)[C@@H](NC(=O)[C@@H]1CSSC[C@H](NC(=O)CN)C(=O)N[C@@H](CCCNC(=N)N)C(=O)N[C@@H](Cc2ccccc2)C(=O)NCC(=O)N[C@@H]([C@@H](C)O)C(=O)N1)[C@@H](C)O)C(C)C)[C@@H](C)CC)[C@@H](C)O)C(C)C)[C@@H](C)O)C(=O)NCC(=O)N1CCC[C@H]1C(=O)N[C@@H](CCC(N)=O)C(=O)NCC(=O)N1C[C@H](O)C[C@H]1C(N)=O [compound 336] (H-GCRFGTCTVQWLAHQIYQFTDKDKDNVAPRTKIGPQG[Hyp]-NH2; disulfide 2-7; N-terminus assumed) |
